Biological target: Platelet-derived growth factor receptor (Mus musculus)
Assay: The cells were stimulated with PDGF (100 ng/mL) for 10 min at room temperature. Then the cell lysates were analyzed by SDS-PAGE and immunoblotting with anti-phosphotyrosine antibodies. Quantification of IC50 values was based on the intensity of the signal for autophosphorylated PDGF receptor. Titration was done using four to ei

## O=C(c1cc2ccccc2[nH]1)c1cc2cc(OC(=O)C3CCC3)ccc2[nH]1 [2-(1H-indol-2-ylcarbonyl)-1H-indol-5-yl cyclobutanecarboxylate]
  IC50: 5.7 µM

## O=C(c1cc2ccccc2[nH]1)c1cc2cc(OCCCCI)ccc2[nH]1 [5-(4-Iodobutoxy-1H-2-indolyl)(1H-2-indolyl)methanone]
pH 7.4
  IC50: 12.5 µM

## O=C(c1cc2ccccc2[nH]1)c1cc2cc(OCc3ccccc3)ccc2[nH]1 [5-(benzyloxy)-2-(1H-indol-2-ylcarbonyl)-1H-indole]
pH 7.4
  IC50: 20 µM

## COc1ccc2[nH]c(C(=O)c3cc4cc(OC)ccc4[nH]3)cc2c1 [Bis(5-methoxy-1H-2-indolyl)methanone]
pH 7.4
  IC50: 20 µM
